Like-named read-outs stand apart in the source and are kept apart here.
Experiments:
[1] = test system: Xylella fastidiosa subsp. fastidiosa IVIA5387.2; experiment: microbe, parasite or virus in culture; details: 0.5 h, read-out: minimum bactericidal concentration (MBC)
[2] = test system: Liberibacter crescens strain BT-1 (cultured surrogate for Candidatus Liberibacter spp.); details: 100 and 250 μg/ml; 30 or 120 minutes of contact
[3] = test system: Xylella fastidiosa subsp. multiplex IVIA5901; experiment: microbe, parasite or virus in culture; format: cell-based; details: 0.5 h, read-out: minimum bactericidal concentration (MBC)
[4] = test system: Xylella fastidiosa subsp. fastidiosa IVIA5387.2; format: in vivo, Prunus dulcis; details: 33 mg/ml trunk microinjection, 2 mg/plant, preventive + curative
[5] = test system: Xylella fastidiosa subsp. pauca DeDonno; experiment: microbe, parasite or virus in culture; format: cell-based; details: 0.5 h, read-out: minimum bactericidal concentration (MBC)
[6] = test system: Xylella fastidiosa subsp. fastidiosa IVIA5387.2
Erwinia amylovora EPS101 = format: cell-based
[7] = test system: Liberibacter crescens strain BT-1 (cultured surrogate for Candidatus Liberibacter spp.); experiment: microbe, parasite or virus in culture; details: 0.5 h, read-out: minimum bactericidal concentration (MBC)
[8] = 50 μg/ml, after 30 min of contact
[9] = 50 μg/ml, after 120 min of contact

**Q.** Which MBC [1] does the source give for `CCCCCCCCCCCC(=O)OCC(O)CO` (stereo not shown) [Compound of formula (I), 2,3-dihydroxypropyl dodecanoate] here?
**A.** Its MBC is ~50 µg/mL.

**Q.** And the “mortality (no growth observed)” value [2]?
**A.** Its value is “about 100%”.

**Q.** What about the MBC [3] of the same compound?
**A.** Its MBC is < 250 µg/mL.

**Q.** What about the “severity scale score (almond leaf scorch, 0-5)” value (“severity scale score” for short) ([4]; 55 days after infection) of the same compound?
**A.** The value was 0.11.

**Q.** And the “severity scale score” value ([4]; 62 days after infection)?
**A.** The value was 0.44.

**Q.** And the “severity scale score” value ([4]; 82 days after infection)?
**A.** The value was 0.42.

**Q.** What about the “severity scale score” value ([4]; 115 days after infection) of the same compound?
**A.** Its value is 1.17.

**Q.** And the “severity scale score” value ([4]; 140 days after infection)?
**A.** Its value is 2.33.

**Q.** And the MBC [5]?
**A.** Its MBC is < 250 µg/mL.

**Q.** What about the survival [6, 8] of the same compound?
**A.** Its survival is “about 27.6%”.

**Q.** And the “survival (log CFU/ml)” value [6, 8]?
**A.** The value was 2.26 log CFU/ml.

**Q.** And the survival [6, 9]?
**A.** Its survival is ~23.1%.

**Q.** What about the “survival (Log CFU/ml)” value [6, 9] of the same compound?
**A.** Its value is 1.87 Log CFU/ml.

**Q.** What about the “mortality (no growth observed)” value ([6]; 100 and 75 μg/ml, 30 or 120 minutes of contact) of the same compound?
**A.** Its value is “about 100%”.

**Q.** What about the “bactericidal effect (bacterial growing, not quantitative)” value (Erwinia amylovora EPS101) of the same compound?
**A.** Its value is “no bactericidal effect”.

**Q.** And the MBC [7]?
**A.** Its MBC is < 100 µg/mL.

Reference: patent US20260223841A1 (priority 2023, published 2026)
